Tests used:
Experiment in all cases: selective drug sensitivity score (sDSS, relative to normal bone marrow) (sDSS (score)); higher = more potent and effective on the cell line relative to normal bone marrow cells
Conditions in all cases: 72 h
P12-ICHIKAWA = test system: P12-ICHIKAWA
COG-LL-319h = test system: COG-LL-319h
MHH-CALL-4 = test system: MHH-CALL-4
NALM-6 = test system: NALM-6
ALL-SIL = test system: ALL-SIL
MN-60 = test system: MN-60
PF-382 = test system: PF-382
KOPN-8 = test system: KOPN-8
RCH-ACV = test system: RCH-ACV
SEM cells = test system: SEM cells
KARPAS-45 = test system: KARPAS-45
KASUMI-2 = test system: KASUMI-2
CCRF-CEM = test system: CCRF-CEM
JURKAT = test system: JURKAT
NALL-1 = test system: NALL-1
CCRF-HSB2 = test system: CCRF-HSB2
COG-LL-355h = test system: COG-LL-355h
697 = test system: 697
MOLT-14 = test system: MOLT-14
REH = test system: REH
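Note: ALL cell lines in 384-well plates, five doses spanning 10,000-fold, each plate scaled between vehicle and 100 µmol/L benzalkonium chloride controls, sDSS an adapted area-under-curve metric.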

SMILES | selective drug sensitivity score (P12-ICHIKAWA) | selective drug sensitivity score (COG-LL-319h) | selective drug sensitivity score (MHH-CALL-4) | selective drug sensitivity score (NALM-6) | selective drug sensitivity score (ALL-SIL) | selective drug sensitivity score (MN-60) | selective drug sensitivity score (PF-382) | selective drug sensitivity score (KOPN-8) | selective drug sensitivity score (RCH-ACV) | selective drug sensitivity score (SEM cells) | selective drug sensitivity score (KARPAS-45) | selective drug sensitivity score (KASUMI-2) | selective drug sensitivity score (CCRF-CEM) | selective drug sensitivity score (JURKAT) | selective drug sensitivity score (NALL-1) | selective drug sensitivity score (CCRF-HSB2) | selective drug sensitivity score (COG-LL-355h) | selective drug sensitivity score 697 | selective drug sensitivity score (MOLT-14) | selective drug sensitivity score (REH)
CCn1cc(-c2ccnc3[nH]c(-c4cccc(CN(C)C)c4)cc23)c(-c2ccc(NC(=O)N(C)C)cc2)n1 (top concentration 1000 nM) | 15.4 | 22.9 | 7.46 | 13.8 | 21.3 | -1.84 | 9.26 | 11.2 | 14 | 17.9 | 24.1 | 17.7 | 18 | -1.84 | 13.1 | 15.5 | 8.36 | 20.5 | 15.9 | 19.3
CC(C)(C)C[C@@H]1N[C@@H](C(=O)N[C@H]2CC[C@H](O)CC2)[C@H](c2cccc(Cl)c2F)[C@]12C(=O)Nc1cc(Cl)ccc12 (top concentration 10000 nM) | -5.24 | 13.9 | 8.96 | 6.26 | -3.34 | -0.74 | -3.94 | 12.9 | 12.4 | -1.94 | -2.64 | 11.7 | -3.94 | -4.74 | -7.64 | 9.06 | 8.46 | 11.2 | 9.56 | 3.56
Cc1c(Cn2c(C)nc3c(C(=O)O)cc(N4CCOCC4)cc32)cccc1C(F)(F)F (top concentration 10000 nM) | -0.02 | -0.02 | 0.58 | -0.02 | -0.02 | -0.02 | -0.02 | 0.38 | 5.18 | 0.58 | 0.08 | -0.02 | 0.38 | -0.02 | 0.68 | -0.02 | 1.98 | 1.28 | 0.38 | 0.68
Nc1ncnc2c1c(COc1cccc(Cl)c1)nn2C1CCOCC1 (top concentration 10000 nM) | -0.54 | 3.96 | -0.64 | -0.54 | -0.64 | 2.96 | -0.24 | 5.66 | 6.06 | -0.64 | 0.26 | 2.46 | -0.44 | 0.06 | -0.64 | 2.96 | 2.06 | 0.26 | -0.64 | -0.64
Cn1cc(C[C@@H](N)C(=O)O)c2ccccc21 [1-methyl-D-tryptophan] (top concentration 5000 nM) | -0.62 | -0.62 | -0.62 | -0.62 | -0.62 | -0.62 | -0.62 | 1.18 | -0.62 | -0.32 | -0.62 | 0.38 | -0.62 | -0.62 | -0.62 | -0.62 | -0.62 | -0.62 | -0.62 | 3.68
COc1cc2c(cc1OCCCN1CCCC1)N=C(N)C21CCC1 [A-366] (top concentration 25000 nM) | -0.84 | 3.16 | -0.34 | -1.84 | -0.34 | -1.84 | -0.84 | -0.64 | 0.06 | 0.46 | 5.16 | -1.84 | 2.16 | -1.04 | -1.84 | 0.16 | 0.76 | -1.34 | 3.16 | 0.36
COCCOc1cnc2ccn([C@H](C)c3nnc4c(F)cc(-c5cnn(C)c5)cn34)c(=O)c2c1 [AMG-337] (top concentration 10000 nM) | -0.06 | -0.06 | -0.06 | -0.06 | -0.06 | -0.06 | -0.06 | 1.54 | -0.06 | -0.06 | -0.06 | 2.14 | -0.06 | -0.06 | 2.14 | -0.06 | -0.06 | -0.06 | -0.06 | 1.24
COc1cc(N2CCC(N3CCN(C)CC3)CC2)ccc1Nc1ncnc(Nc2ccccc2S(=O)(=O)C(C)C)n1 [ASP3026] (top concentration 10000 nM) | -1.44 | -4.04 | -3.94 | 1.86 | 0.16 | 0.66 | -0.04 | -2.64 | -0.74 | 1.66 | 0.56 | -4.04 | -0.14 | -1.54 | -2.64 | 5.06 | 1.36 | -0.84 | 1.36 | 3.26
CN[C@@H](C)C(=O)N[C@H]1CN(C(=O)CC(C)C)CC[C@H]2CC[C@@H](C(=O)NC(c3ccccc3)c3ccccc3)N2C1=O [AT-406] (top concentration 10000 nM) | -1.26 | -1.06 | -1.26 | -1.26 | -1.26 | -1.26 | -1.26 | -1.26 | 0.84 | -1.26 | -1.26 | 0.34 | 1.34 | -1.26 | 5.34 | 1.94 | 8.04 | -1.26 | -1.26 | 5.74
